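Five compound concentrations were applied to cells in 96-well plates for 48 hours; endpoints were derived by simple linear interpolation of the resulting dose-response curve. The concentration for full growth arrest is given as TGI.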

Among the test systems are COLO 205 colon; HOP-62 NSCLC; LOX IMVI melanoma; M14 melanoma; NCI/ADR-RES ovarian; OVCAR-4 ovarian; OVCAR-5 ovarian; SK-MEL-5 melanoma; SK-OV-3 ovarian; TK-10 renal.
What all share (test): growth of human tumour cells (NCI), 48 h

Take `CC(/C=N/NC1=NCCCN1)=N\NC1=NCCCN1`: the TGI in the test on COLO 205 colon, in the test on HOP-62 NSCLC, with LOX IMVI melanoma, in the test with M14 melanoma, in the test with NCI/ADR-RES ovarian and in the test on OVCAR-4 ovarian was above 100 µM each time. Also, the TGI with OVCAR-5 ovarian, with SK-MEL-5 melanoma, in the test with SK-OV-3 ovarian and in the test with TK-10 renal was above 100 µM in each case.
On to `C/C=C1\CC(C(=O)OCC)CCCCCCCCCCC1=O` (stereo not given), for which the TGI was above 100 µM in the test on COLO 205 colon; above 100 µM in the test on HOP-62 NSCLC; 80.8 µM in the test on LOX IMVI melanoma; above 100 µM in the test with M14 melanoma; above 100 µM with NCI/ADR-RES ovarian; above 100 µM with OVCAR-4 ovarian. For the same compound, the TGI with OVCAR-5 ovarian, with SK-MEL-5 melanoma, in the test with SK-OV-3 ovarian and in the test with TK-10 renal was above 100 µM throughout.
With `CC1CN=C(c2ccc(COc3ccc(C4=NCC(C)N4)cc3)cc2)N1` (stereo not given), the TGI with COLO 205 colon, in the test on HOP-62 NSCLC, in the test with LOX IMVI melanoma, with M14 melanoma, with NCI/ADR-RES ovarian and in the test on OVCAR-4 ovarian was above 100 µM each time. The TGI in the test with OVCAR-5 ovarian, in the test on SK-MEL-5 melanoma, in the test with SK-OV-3 ovarian and with TK-10 renal was above 100 µM each time.
For `CC1(C)C2CCC(N)(C2)C1O` (stereo not given), the TGI in the test on COLO 205 colon, in the test on HOP-62 NSCLC, in the test on LOX IMVI melanoma, in the test with M14 melanoma, in the test on NCI/ADR-RES ovarian and in the test on OVCAR-4 ovarian was above 100 µM in each case. The TGI with OVCAR-5 ovarian, with SK-MEL-5 melanoma, in the test on SK-OV-3 ovarian and in the test with TK-10 renal was above 100 µM in each case.
With `CC1(C)CC2C(C1=O)C1(C)CCCC2(C)C1=O` (stereo not given), the TGI in the test on COLO 205 colon, in the test with HOP-62 NSCLC, in the test on LOX IMVI melanoma, in the test on M14 melanoma, in the test with NCI/ADR-RES ovarian and in the test with OVCAR-4 ovarian was above 100 µM in each case. The TGI in the test with OVCAR-5 ovarian, in the test with SK-MEL-5 melanoma, in the test with SK-OV-3 ovarian and in the test on TK-10 renal was above 100 µM in each case.
`CCCCCCCCCCCCCCCCP(=O)([O-])OCC[N+](C)(C)C`: the TGI with COLO 205 colon was 20.5 µM; in the test on HOP-62 NSCLC, 31 µM; in the test with LOX IMVI melanoma it was 29 µM; in the test on M14 melanoma it was 28.9 µM; in the test with NCI/ADR-RES ovarian, 34.7 µM; with OVCAR-4 ovarian it was 34.7 µM. The TGI in the test on OVCAR-5 ovarian was found to be 21.8 µM; with SK-MEL-5 melanoma, 30 µM; in the test with SK-OV-3 ovarian, 24.6 µM; in the test with TK-10 renal it was 3.51 µM.
For the compound `C=CC(Br)(CBr)CCC(Br)C(C)C` (stereo not given), the TGI in the test with COLO 205 colon came to 19.8 µM; in the test on HOP-62 NSCLC, 9.71 µM; in the test with LOX IMVI melanoma it was 3.1 µM; with M14 melanoma, 15.3 µM; in the test on NCI/ADR-RES ovarian, 33.8 µM; in the test on OVCAR-4 ovarian, 17.9 µM. Besides, the TGI with OVCAR-5 ovarian turned out to be 29.6 µM; in the test with SK-MEL-5 melanoma it was 17.7 µM; with SK-OV-3 ovarian, 30.2 µM; in the test with TK-10 renal, 10.4 µM.
`C#CCCCC(=O)N(C(=O)CS(=O)CC)c1ccccc1` (stereo not given): the TGI in the test with COLO 205 colon, in the test with HOP-62 NSCLC, in the test on LOX IMVI melanoma, with M14 melanoma, in the test on NCI/ADR-RES ovarian and in the test with OVCAR-4 ovarian was above 100 µM in each case. The TGI in the test with OVCAR-5 ovarian, in the test with SK-MEL-5 melanoma, in the test with SK-OV-3 ovarian and in the test on TK-10 renal was above 100 µM each time.
For `COc1cccc(-c2cc(=O)c3cc(Cl)cnc3[nH]2)c1`, the TGI with COLO 205 colon is 7.59 µM; in the test on HOP-62 NSCLC, 9.84 µM; with LOX IMVI melanoma, above 100 µM; in the test on M14 melanoma, above 9.71 µM; with NCI/ADR-RES ovarian it was 0.783 µM; in the test on OVCAR-4 ovarian, 76.3 µM. Also, the TGI in the test on OVCAR-5 ovarian was above 100 µM; with SK-MEL-5 melanoma, 7.33 µM; with SK-OV-3 ovarian it was 74.8 µM; with TK-10 renal it was above 89.9 µM.
As for `O=C1c2cc([N+](=O)[O-])sc2C(=O)c2ccsc21`, the TGI came to 1.66 µM in the test on COLO 205 colon; 0.486 µM in the test on HOP-62 NSCLC; 0.225 µM with LOX IMVI melanoma; 0.663 µM with M14 melanoma; 2.78 µM in the test with NCI/ADR-RES ovarian; 0.947 µM in the test with OVCAR-4 ovarian. Besides, the TGI with OVCAR-5 ovarian is 3.22 µM; in the test on SK-MEL-5 melanoma it was 0.336 µM; in the test on SK-OV-3 ovarian, 2.95 µM; in the test with TK-10 renal, 1.99 µM.
Turning to `Cc1cc(O)c(C(C)C)cc1N=Cc1ccccc1O`, the TGI in the test on COLO 205 colon is 42.3 µM; with HOP-62 NSCLC it was 26.1 µM; with LOX IMVI melanoma, above 84.3 µM; in the test on M14 melanoma it was 31.4 µM; with NCI/ADR-RES ovarian, above 67 µM; in the test on OVCAR-4 ovarian, 9.66 µM. Moreover, the TGI worked out at 41.2 µM with OVCAR-5 ovarian, 18.8 µM with SK-MEL-5 melanoma, 28.8 µM in the test on SK-OV-3 ovarian and 26.9 µM in the test on TK-10 renal.
Turning to `O=C(Oc1cccc(Cl)c1)c1cc2cc(CCl)ccc2oc1=O`, the TGI is 45.9 µM in the test on COLO 205 colon; above 100 µM with HOP-62 NSCLC; above 100 µM in the test with LOX IMVI melanoma; 31.4 µM in the test with M14 melanoma; above 100 µM in the test on NCI/ADR-RES ovarian; above 100 µM in the test with OVCAR-4 ovarian. The TGI in the test on OVCAR-5 ovarian is above 100 µM; in the test with SK-MEL-5 melanoma, 33.2 µM; with SK-OV-3 ovarian, above 100 µM; with TK-10 renal it was above 100 µM.

The values above are taken from PubChem BioAssay (NCI).
